According to patent US6911477B2, “Muscarinic receptor agonists” (Pfizer Inc., priority 1996, dated 2005):
Structures can show the parent of a compound that is named as a salt.

Tests used:
human m4 receptor = biological target: T1, human m4 receptor (Homo sapiens, UniProt P08173); assay: inhibition of forskolin-stimulated cAMP accumulation, m4 receptor; assay type: cell-based; settings: standard agonist, typical value, 5 μM forskolin
T1 construct: host or cells: CHO-K1
T1 sequence (P08173 1-479): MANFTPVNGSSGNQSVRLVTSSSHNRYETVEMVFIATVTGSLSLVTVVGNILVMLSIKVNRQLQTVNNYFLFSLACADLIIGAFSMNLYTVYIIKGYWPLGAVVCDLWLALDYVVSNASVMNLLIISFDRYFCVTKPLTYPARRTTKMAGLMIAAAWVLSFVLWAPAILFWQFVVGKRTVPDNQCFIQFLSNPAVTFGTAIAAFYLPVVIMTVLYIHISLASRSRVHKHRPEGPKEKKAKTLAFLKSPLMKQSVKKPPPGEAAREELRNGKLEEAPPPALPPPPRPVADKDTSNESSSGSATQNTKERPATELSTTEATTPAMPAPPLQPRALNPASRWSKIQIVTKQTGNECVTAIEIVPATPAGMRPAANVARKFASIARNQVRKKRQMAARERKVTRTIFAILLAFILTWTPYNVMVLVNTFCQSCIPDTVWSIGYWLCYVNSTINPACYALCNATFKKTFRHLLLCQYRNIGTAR
From the text: (§1) Activity of the compounds of formula I for muscarinic receptors can be determined according to the following protocol. Chinese hamster ovary cells (CHO-K1) stably transformed to express human m1-m5 receptors can be obtained from Dr. Tom Bonner (Laboratory of Cell Biology, National Institute of Mental Health, Building 36, Rm 3A-17, National Institute of Health, Bethesda, Md. 20892). Cells are maintained in Dulbecco's Modified Eagle Medium containing 10% fetal calf serum and harvested at confluence by brief incubation in Ca^++/Mg^++-free phosphate-buffered saline containing 4 mM EDTA.
(§2) Functional responses at m2 and m4 receptors can be determined by measuring inhibition of forskolin-stimulated cAMP accumulation. Harvested cells are preincubated (15 minutes at 20-22° C.) with 3-isobutyl-1-methyl-xanthine (IBMX; 0.2 mM) and then incubated (10 minutes at 20-22° C.) in a HEPES-buffered Krebs solution with test compounds in the presence of 5 μM forskolin. The reaction is stopped by the addition of 10 N acetic acid and the cAMP content of dried supernatants is determined using a scintillation proximity assay (Amersham).

human m2 receptor = biological target: T2, human m2 receptor (Homo sapiens, UniProt P08172); assay: inhibition of forskolin-stimulated cAMP accumulation, m2 receptor; assay type: cell-based; settings: standard agonist, typical value, 5 μM forskolin
T2 sequence (P08172 1-466): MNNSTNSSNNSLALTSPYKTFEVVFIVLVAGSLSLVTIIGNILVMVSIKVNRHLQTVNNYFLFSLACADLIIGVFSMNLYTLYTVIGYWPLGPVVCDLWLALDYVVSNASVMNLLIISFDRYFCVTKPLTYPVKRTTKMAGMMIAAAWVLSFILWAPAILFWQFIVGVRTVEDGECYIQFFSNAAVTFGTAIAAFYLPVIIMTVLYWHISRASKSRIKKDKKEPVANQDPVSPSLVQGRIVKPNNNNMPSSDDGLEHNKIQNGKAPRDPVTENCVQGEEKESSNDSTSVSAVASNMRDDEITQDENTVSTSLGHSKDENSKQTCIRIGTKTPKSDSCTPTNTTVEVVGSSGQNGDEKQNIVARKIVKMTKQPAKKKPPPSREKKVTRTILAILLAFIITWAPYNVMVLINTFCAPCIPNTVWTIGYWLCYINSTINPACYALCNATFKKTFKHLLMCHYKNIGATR
From the text: as §1, §2

melting point	SMILES	also measured
149 to 151 °C (dec.)	Cc1cccc(C)c1C(=Nc1ccc(F)cc1)NC(=Nc1ccc(Cl)cc1)N1CCCCC1C (stereo not drawn) (as salt: hydrochloride) [Example 46, N-[(4-chloro-phenylimino)-(2-methyl-piperidin-1-yl)-methyl]-N′-(4-fluoro-phenyl)-2,6-dimethyl-benzamidine]	
136 to 138 °C	Cc1cccc(C)c1C(=Nc1ccc(F)cc1)NC(=NC1CCC1)N1CCCCC1C (stereo not drawn) (as salt: hydrochloride) [Example 102, N-[cyclobutylimino-(2-methyl-piperidin-1-yl)-methyl]-N′-(4-fluoro-phenyl)-2,6-dimethyl-benzamidine]	
213 to 214 °C	Cc1cccc(C)c1C(=NC(=Nc1ccc(F)cc1)N1CCCCO1)Nc1ccc(F)cc1 (as salt: hydrochloride) [Example 50, N-(4-fluoro-phenyl)-N′-[(4-fluoro-phenylimino)-[1,2]oxazinan-2-yl-methyl]-2,6-dimethyl-benzamidine]	
181 to 183 °C	Cc1cccc(C)c1C(=Nc1ccc(F)cc1)NC(=Nc1ccccc1)N1CCCCC1C (stereo not drawn) (as salt: hydrochloride) [Example 35, N-[(2,6-dimethyl-phenyl)-(4-fluoro-phenylimino)-methyl]-2-methyl-N′-phenyl-piperidine-1-carboxamidine]	
155 to 157 °C	Cc1cccc(C)c1C(=Nc1ccc(F)cc1)NC(=Nc1ccc(F)cc1)N1CCCCCC1 (as salt: hydrochloride) [Example 49, N-[azepan-1-yl-(4-fluoro-phenylimino)-methyl]-N′-(4-fluoro-phenyl)-2,6-dimethyl-benzamidine]	
168 to 170 °C (dec.)	CCC(C)N=C(NC(=Nc1ccc(F)cc1)c1c(C)cccc1C)N1CCCCC1C (stereo not drawn) (as salt: hydrochloride) [Example 98, N-[sec-butylimino-(2-methyl-piperidin-1-yl)-methyl]-N′-(4-fluoro-phenyl)-2,6-dimethyl-benzamidine]	
196 to 198 °C (dec.)	Cc1cccc(C)c1C(=NC(=Nc1ccccc1)N1CCCC(O)C1)Nc1ccc(F)cc1 (stereo not drawn) (as salt: hydrochloride) [Example 62, N-(4-fluoro-phenyl)-N′-[(3-hydroxy-piperidin-1-yl)-phenylimino-methyl]-2,6-dimethyl-benzamidine]	
179 to 181 °C	Cc1cccc(C)c1C(=Nc1ccc(F)cc1)NC(=Nc1ccc(N)cc1)N1CCCCC1C (stereo not drawn) (as salt: hydrochloride) [Example 64, N-[(4-amino-phenylimino)-(2-methyl-piperidin-1-yl)-methyl]-N′-(4-fluoro-phenyl)-2,6-dimethyl-benzamidine]	
180 to 182 °C	CC1CCCCN1C(=Nc1ccccc1)NC(=Nc1ccccc1)c1ccccc1 (stereo not drawn) (as salt: hydroiodid) [Example 33, N-[(2-methyl-piperidin-1-yl)-phenylimino-methyl]-N′-phenyl-benzamidine]	
173 to 175 °C	Cc1ccccc1C(=NC(=Nc1ccccc1)N1CCCCC1C)Nc1ccc(F)cc1 (stereo not drawn) (as salt: hydrochloride) [Example 28, N-(4-fluoro-phenyl)-2-methyl-N′-[(2-methyl-piperidin-1-yl)-phenylimino-methyl]-benzamidine]	
163 to 165 °C (dec.)	CC1CCCCN1C(N=C(Nc1ccc(F)cc1)c1c(F)cccc1F)=Nc1ccccc1 (stereo not drawn) (as salt: nitrate) [Example 44, 2,6-difluoro-N-(4-fluoro-phenyl)-N′-[(2-methyl-piperidin-1-yl)-phenylimino-methyl]-benzamidine]	
162 to 164 °C (dec.)	COc1ccc(NC(=NC(=Nc2ccccc2)N2CCCCC2C)c2ccccc2C)cc1 (stereo not drawn) (as salt: hydrochloride) [Example 60, N-(4-methoxy-phenyl)-2-methyl-N′-[(2-methyl-piperidin-1-yl)-phenylimino-methyl]-benzamidine]	

Further lines, the molecule ahead of its results:

SMILES	melting point	also measured
C[N+](C)(C)CCOC(N)=O [Carbachol]		inhibition of the forskolin-stimulated cAMP levels (human m4 receptor): 60-80%; inhibition of the forskolin-stimulated cAMP levels (human m2 receptor): 60-80%
Cc1ccccc1C(=NC(=Nc1ccccc1)N1CCCCO1)Nc1ccc(F)cc1 (as salt: hydrochloride) [Example 42, N-(4-fluoro-phenyl)-2-methyl-N′-([1,2]oxazinan-2-yl-phenylimino-methyl)-benzamidine]	199 to 200 °C (dec.)	
Cc1ccccc1C(=NC(=Nc1ccccc1)N1CCC(O)CC1)Nc1ccc(F)cc1 (as salt: hydrochloride) [Example 26, N-(4-fluoro-phenyl)-N′-[(4-hydroxy-piperidin-1-yl)-phenylimino-methyl]-2-methyl-benzamidine]	228 to 230 °C (dec.)	
Cc1ccccc1C(=Nc1ccc(F)cc1)NC(=NC1CC1)C1(C)CCCCC1 (as salt: hydrochloride) [Example 106, N-[cyclopropylimino-(1-methyl-cyclohexyl)-methyl]-N′-(4-fluoro-phenyl)-2-methyl-benzamidine]	205 to 207 °C	
COc1ccc(NC(=CC(=Nc2ccccc2)N2CCCCO2)c2ccccc2C)cc1 (as salt: hydrochloride) [Example 94, (3-phenylimino-3-[1,2]oxazinan-2-yl-1-o-tolyl-propenyl)-(4-methoxy-phenyl)-amine]	192 to 194 °C	
Clc1ccccc1C(=NC(=Nc1ccccc1)N1CCCC1)Nc1ccccc1 (as salt: hydrochloride) [Example 30, 2-chloro-N-phenyl-N′-(phenylimino-pyrrolidin-1-yl-methyl)-benzamidine]	228 to 230 °C	
Cc1ccccc1C(=Nc1ccccc1)NC(=Nc1ccccc1)N1CCC(O)CC1 (as salt: hydrochloride) [Example 24, N-[(4-hydroxy-piperidin-1-yl)-phenylimino-methyl]-2-methyl-N′-phenyl-benzamidine]	218 to 220 °C	
Fc1ccc(NC(=CC(=NC2CC2)N2CCCCO2)c2ccccc2)cc1 (as salt: nitrate) [Example 110, (3-cyclopropylimino-3-[1,2]oxazinan-2-yl-1-phenyl-propenyl)-(4-fluoro-phenyl)-amine]	82 to 84 °C	
Clc1ccc(NC(=NC(=Nc2ccccc2)N2CCCC2)c2ccccc2)cc1 (as salt: hydrochloride) [Example 16, N-(4-chloro-phenyl)-N′-(phenylimino-pyrrolidin-1-yl-methyl)-benzamidine]	219 to 221 °C	
Fc1ccc(NC(=NC(=Nc2ccccc2)N2CCCC2)c2ccccc2)cc1 (as salt: hydrochloride) [Example 2, N-(4-Fluoro-phenyl)-N′-(phenylimino-pyrrolidin-1-yl-methyl)-benzamidine]	259 to 260 °C (dec.)	
c1ccc(N=C(N=C(Nc2ccccc2)c2ccccc2)N2CCCC2)cc1 (as salt: hydrochloride) [Example 1, N-Phenyl-N′-(phenylimino-pyrrolidin-1-yl-methyl)-benzamidine]	246 to 247 °C	
Cc1ccccc1C(=Nc1ccc(F)cc1)NC(=Nc1ccccc1)C12CC3CC(CC(C3)C1)C2 (as salt: hydrochloride) [Example 47, N-(adamantan-1-yl-phenylimino-methyl)-N′-(4-fluoro-phenyl)-2-methyl-benzamidine]	219 to 221 °C	
CC1CCCC(C)N1C(=Nc1ccc(F)cc1)NC(=Nc1ccc(F)cc1)c1c(F)cccc1F (stereo not drawn) (as salt: nitrate) [Example 52, N-[(2,6-dimethyl-piperidin-1-yl)-(4-fluoro-phenylimino)-methyl]-2,6-difluoro-N′-(4-fluoro-phenyl)-benzamidine]	172 to 174 °C	
Cc1ccccc1C(=CC(=NC1CCCCC1)N1CCCCC1C)Nc1ccc(F)cc1 (stereo not drawn) (as salt: hydrochloride) [Example 100, [3-cyclohexylimino-3-(2-methyl-piperidin-1-yl)-1-o-tolyl-propenyl]-(4-fluoro-phenyl)-amine]	> 125 °C (dec.)	
